The values that follow come from patent US20130150354A1, “NEW SELECTIVE CCR2 ANTAGONISTS” (BOEHRINGER INGELHEIM INTERNATIONAL GMBH, priority 2011, published 2013).

T1 sequence (P51681 whole entry): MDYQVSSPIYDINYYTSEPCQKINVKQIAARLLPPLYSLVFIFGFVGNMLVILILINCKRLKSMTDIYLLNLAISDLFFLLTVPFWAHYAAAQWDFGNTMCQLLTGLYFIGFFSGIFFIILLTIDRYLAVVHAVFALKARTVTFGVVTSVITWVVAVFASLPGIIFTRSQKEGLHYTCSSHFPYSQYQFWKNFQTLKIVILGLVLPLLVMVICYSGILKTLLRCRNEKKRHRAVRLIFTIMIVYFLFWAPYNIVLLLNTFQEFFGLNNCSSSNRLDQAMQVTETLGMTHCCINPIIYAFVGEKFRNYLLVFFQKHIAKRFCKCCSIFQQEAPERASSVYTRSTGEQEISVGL

The first test has as its target T1, human CCR5 (Homo sapiens, UniProt P51681).
T1 construct: expressed in transfected cells; host or cells: CHO cells co-expressing Gα16, grown under puromycin and zeocin selection; membrane preparation
In words: CCR5 receptor membrane binding assay (CHO (Gα16) human CCR5 membranes, [125I]RANTES, SPA beads). The following applies: 6 h, read-out: hKi [nM] (CCR5). On the procedure:
The above exemplary substances have been tested for binding to CCR5 using a binding assay as outlined herein below:
CHO, (Gα16) human CCR5 cells were cultured under standardized conditions at 37° C. and 5% CO2 in a humidified incubator. CHO (Gα16) human CCR5 cells were cultivated in Ham's F12 (Invitrogen; #31765068) supplemented with 10 µg/ml Puromycin (Invitrogen; #A11139-03), 200 µg/ml Zeocin (Invitrogen; #45-0003) and 10% FCS (Gibco; #10500-064).
Membranes were prepared from CHO (Gα16) human CCR5 cells. Cells were cultured on […] plates (Nunc; #166508) 2-3 days before membrane preparation (usually 80-100 plates to obtain 80 mg protein).
Cells were scraped off the plates with a big scraper and washed with 2×5 ml ice cold Phosphate Buffer Saline (PBS; Invitrogen; #14040-174). Cell suspension was collected in a glass bottle (on ice). Cell suspension was harvested at 1400 rpm and 4° C. for 10 min and washed in PBS. Cell pellet was resuspended in 40 ml PBS with protease inhibitor mix ‘complete’ (Roche; #11873580001; 1 tablet/50 ml).
For gentle cell disruption the membrane preparation was performed by using a homogenizer (potter). Cells were homogenized for 5-10 min.
Membranes were centrifuged at 1000 rpm and 4° C. for 5 min. Supernatant (=membrane) was harvested in a new falcon tube and remaining cell pellet homogenized again for 5-10 min with PBS with protease inhibitor mix and centrifuged. Collected supernatant was centrifuged at 40000 rpm and 4° C. for 30 min to sediment the cell membranes.
The membranes were resuspended in 25 mM HEPES, 25 mM MgCl2, 1 mM CaCl2, 10% Glycerine for storage in aliquots at −80° C. Membranes were diluted to a concentration of 5 mg/ml (Bradford Assay).
[^125I]RANTES, Stock: 1825 Ci/mmol, 25 μCi (Bio Trend #A3-AI-676) was solved in 1000 μl assay buffer (100 mM NaCl; 10 mM MgCl2; 50 mM Tris-HCl; 1 mM EDTA; 0.1% BSA, pH 7.6), stored at −20° C.
CHO (Gα16) human CCR5 membrane were solved on ice and adjusted with assay buffer to a concentration of 2.5 μg/15 μl.
Amersham Biosciences PVT-WGA Beads (GE Healthcare; #RPNQ0001) were adjusted with assay buffer to a concentration of 8 mg/ml. For preparation of the membrane-bead-suspension, membranes and beads were incubated for 30 min at RT under rotation with a ratio of 1:2.
Test compounds dissolved in 100% DMSO to a concentration of 10 mM and are further diluted with 100% DMSO to 1 mM. All additional compound dilutions were obtained with assay buffer, final 1% DMSO. 7 μl compound dilution, 45 μl membrane-bead-suspension and 10 μl [^125I]RANTES (ca. 20000 cpm/10 μl) were incubated at RT. Bound radioactivity was determined by scintillation counter after 6 h. Determination of affinity of test compounds (dissociation constant Ki) is calculated by iterative fitting of experimental data using the “easy sys” program, which is based on law of mass action (Schittkowski K. (1994), Numerische Mathematik, Vol. 68, 129-142).
In the case of `Cc1c(C(=O)N2CCC(N3CCO[C@H]4COCC[C@H]43)CC2)ncnc1N1CCc2ccc(C(F)(F)F)cc2C1` [Example 3], the Ki was 2090 nM.
Still for that read-out and setting: the figure for `Cc1ccc([C@@H]2CCC[C@H](CNc3ncnc(C(=O)N4CCC(N5CC6CN(S(C)(=O)=O)CC6C5)CC4)c3C)O2)cc1` (stereo partly drawn) [Example 14] is 330 nM; for `Cc1nc(Nc2ccc(Cl)c(Cl)c2)c(C)c(C(=O)N2CCC(N3CCO[C@H]4COCC[C@H]43)CC2)n1` (single isomer, unassigned) [Example 38a] it is 260 nM; for `Cc1ccc2c(c1)CN(c1nc(C)nc(C(=O)N3CCC(N4CCO[C@H]5COCC[C@H]54)CC3)c1C)CC2` [Example 31] it is 7010 nM.
The same measure, in the same setting: to `COc1nc(Nc2cccc(C(F)(F)F)c2)c(C)c(C(=O)N2CCC(N3CCO[C@@H]4COCC[C@@H]43)CC2)n1` (single isomer, unassigned) [Example 36b] belongs 2100 nM; to `Cc1c(NC[C@H]2CCC[C@@H](c3ccc(C(F)(F)F)cc3)O2)ncnc1C(=O)N1CCC(N2CCOC3COCCC32)CC1` (stereo partly drawn) [Example 21], 200 nM.
Still for that read-out and setting: to `Cc1c(Nc2cccc(C(F)(F)F)c2)nc(C2CC2)nc1C(=O)N1CCC(N2CCO[C@H]3COCC[C@H]32)CC1` [Example 29] belongs 960 nM; to `Cc1c(NC[C@H]2CCC[C@@H](c3ccc(OC(F)(F)F)cc3)O2)ncnc1C(=O)N1CCC(N2CCO[C@@H]3COCC[C@H]32)CC1` (single isomer, unassigned) [Example 34], 1140 nM; to `Cc1ccc([C@@H]2CCC[C@H](CNc3ncnc(C(=O)N4CCC(N5CCOC6COCCC65)CC4)c3C)O2)cc1` (stereo partly drawn) [Example 22], 1170 nM.
Turning to `Cc1nc(Nc2ccc(Cl)c(Cl)c2)c(C)c(C(=O)N2CCC(N3CCO[C@H]4COCC[C@H]43)CC2)n1` [Example 25], the Ki came out at 470 nM.
Same read-out and setting: the figure for `Cc1c(NC[C@H]2CCC[C@@H](c3ccc(C(F)(F)F)cc3)O2)ncnc1C(=O)N1CCC(N2CC3COCC3C2)CC1` (stereo partly drawn) [Example 17] is 320 nM.
For `Cc1c(Nc2ccc(Cl)c(Cl)c2)ncnc1C(=O)N1CCC(N2CCO[C@H]3COCC[C@H]32)CC1` [Example 4], the Ki came out at 540 nM.

The target of the next test is T2, CCR2 (Homo sapiens, UniProt P41597).
T2 construct: Membranes were prepared from THP-1 cells; endogenous in cells; host or cells: THP-1 (human acute monocytic leukaemia cells), membrane preparation
T2 sequence (P41597 1-360 isoform P41597-2): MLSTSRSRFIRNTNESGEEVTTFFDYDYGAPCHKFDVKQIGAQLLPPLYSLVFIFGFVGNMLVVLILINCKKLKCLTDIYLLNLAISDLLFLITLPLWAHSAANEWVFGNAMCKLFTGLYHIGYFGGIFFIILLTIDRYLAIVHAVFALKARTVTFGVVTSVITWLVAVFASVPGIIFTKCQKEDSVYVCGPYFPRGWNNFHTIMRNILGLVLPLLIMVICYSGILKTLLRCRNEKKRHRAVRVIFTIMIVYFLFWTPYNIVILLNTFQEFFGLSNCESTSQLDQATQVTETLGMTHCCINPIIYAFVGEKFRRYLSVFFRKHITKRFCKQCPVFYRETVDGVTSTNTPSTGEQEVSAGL
In words: CCR2 receptor membrane binding assay (THP-1 membranes, 125I-MCP-1, SPA beads). As to conditions: THP-1 cell membranes, 125I-MCP-1, 8 h; read-out: hKi [nM] (CCR2). On the procedure: The above exemplary substances have been tested for binding to CCR2 using a binding assay as outlined herein below:
THP-1 cells (human acute monocytic leukaemia cells) were cultured under standardized conditions at 37° C. and 5% CO2 in a humidified incubator. THP-1 cells were cultivated in RPMI 1640 medium (Gibco 21875) containing 1% MEM-NEAA (Gibso 11140) 2 mM L-glutamine, 1.5 g/L sodium bicarbonate, 4.5 g/L glucose, 10 mM HEPES and 1.0 mM sodium pyruvate, 90%; 10% fetal calf serum (FCS Gibco 10500-064).
Membranes were prepared from THP-1 cells. THP-1 cells were centrifuged at 300×g at 4° C. for 10 min. The cell pellet was resuspendet in Phosphate Buffer Saline (PBS, including 10 μM Pefabloc and a protease inhibitor mix ‘complete’, Boehringer Mannheim (1 tablet/50 ml)), to a concentration of […]. The membrane preparation was performed by disrupting the cells by nitrogen […] (at 50 bar, for 1 h) in a “Nitrogen Bombe” (Parr Instrument). Cell debris was removed by centrifugation (800×g at 4° C., 1 min). The supernatant was centrifuged at 80000×g, 4° C. for 30 min to sediment the cell membranes. Usually 50 mg of protein (Bradford assay) were yielded from 1×10E9 cells. The membranes were resuspendet in 25 mM HEPES, 25 mM MgCl2, 1 mM CaCl2, 10% Glycerine for storage in aliquots at −80° C. in 25 mM HEPES, 25 mM MgCl2, 1 mM CaCl2, 10% Glycerine and stored at −80° C.
Perkin Elmer NEX 332 Jod^125 MCP-1, Stock: 2200 Ci/mmol solved in 2000 μl assay buffer, stored at −20° C. THP-1 membrane were adjusted with 25 mM HEPES, pH 7.2; 5 mM MgCl2; 0.5 mM CaCl2; 0.2% BSA assay buffer to a concentration of 2.5 μg/15 μl. Amersham Biosciences PVT-WGA Beads (RPNQ0001) were adjusted with assay buffer to a concentration of 0.24 mg/30 μl. For preparation of the membrane-bead-suspension membranes and beads were incubated for 30 min at RT under rotation (60 rpm) with a ratio of 1:2. Test compounds dissolved in 100% DMSO to a concentration of 10 mM and are further diluted with 100% DMSO to 1 mM. All additional compound dilutions were obtained with assay buffer, final 1% DMSO. Compounds, membrane-bead-suspension and [^125]MCP-1 (ca. 25000 cpm/10 μl) were incubated. Bound radioactivity was determined by scintillation counter after 8 h. Determination of affinity of test compounds (dissociation constant hKi) is calculated by iterative fitting of experimental data using the “easy sys” program, which is based on law of mass action (Schittkowski K. (1994), Numerische Mathematik, Vol. 68, 129-142).
`Cc1c(C(=O)N2CCC(N3CCO[C@H]4COCC[C@H]43)CC2)ncnc1N1CCc2ccc(C(F)(F)F)cc2C1` [Example 3]: the Ki was found to be 4 nM.
The same measure, in the same setting: to `Cc1ccc([C@@H]2CCC[C@H](CNc3ncnc(C(=O)N4CCC(N5CC6CN(S(C)(=O)=O)CC6C5)CC4)c3C)O2)cc1` (stereo partly drawn) [Example 14] belongs 3 nM.
Still for that read-out and setting: the figure for `Cc1nc(Nc2ccc(Cl)c(Cl)c2)c(C)c(C(=O)N2CCC(N3CCO[C@H]4COCC[C@H]43)CC2)n1` (single isomer, unassigned) [Example 38a] is 3 nM.
Same read-out and setting: the figure for `Cc1ccc2c(c1)CN(c1nc(C)nc(C(=O)N3CCC(N4CCO[C@H]5COCC[C@H]54)CC3)c1C)CC2` [Example 31] is 67 nM; for `COc1nc(Nc2cccc(C(F)(F)F)c2)c(C)c(C(=O)N2CCC(N3CCO[C@@H]4COCC[C@@H]43)CC2)n1` (single isomer, unassigned) [Example 36b] it is 42 nM; for `Cc1c(NC[C@H]2CCC[C@@H](c3ccc(C(F)(F)F)cc3)O2)ncnc1C(=O)N1CCC(N2CCOC3COCCC32)CC1` (stereo partly drawn) [Example 21] it is 3 nM.
In the case of `Cc1c(Nc2cccc(C(F)(F)F)c2)nc(C2CC2)nc1C(=O)N1CCC(N2CCO[C@H]3COCC[C@H]32)CC1` [Example 29], the Ki was determined as 1 nM.
As to `Cc1c(NC[C@H]2CCC[C@@H](c3ccc(OC(F)(F)F)cc3)O2)ncnc1C(=O)N1CCC(N2CCO[C@@H]3COCC[C@H]32)CC1` (single isomer, unassigned) [Example 34], the Ki came out at 26 nM.
With `Cc1ccc([C@@H]2CCC[C@H](CNc3ncnc(C(=O)N4CCC(N5CCOC6COCCC65)CC4)c3C)O2)cc1` (stereo partly drawn) [Example 22], the Ki was found to be 15 nM.
On the same count and under the same terms, the figure for `Cc1nc(Nc2ccc(Cl)c(Cl)c2)c(C)c(C(=O)N2CCC(N3CCO[C@H]4COCC[C@H]43)CC2)n1` [Example 25] is 3 nM; for `Cc1c(NC[C@H]2CCC[C@@H](c3ccc(C(F)(F)F)cc3)O2)ncnc1C(=O)N1CCC(N2CC3COCC3C2)CC1` (stereo partly drawn) [Example 17] it is 16 nM; for `Cc1c(Nc2ccc(Cl)c(Cl)c2)ncnc1C(=O)N1CCC(N2CCO[C@H]3COCC[C@H]32)CC1` [Example 4] it is 4 nM.
